Source: patent publication US20020028953A1, “Process for preparing 6-(4-chlorophenyl)-2,2-dimethyl-7-phenyl-2,3-dihydro-1H-pyrrolizin-5-yl-acetic acid” (Merckle GmbH, priority 2000, published 2002)
Like-named read-outs stand apart in the source and are kept apart here.

How the values were obtained:
[1] = stability of the solid form on drying, storage and aging; type: physicochemical
[2] = molecular target: cyclooxygenase (CO) and lipoxygenase (LO); test: inhibitory action on the enzymes cyclooxygenase (CO) and lipoxygenase (LO); type: biochemical
analgesic action = settings: result in words

| IC50LO/IC50CO ([2]; ratio of IC50 lipoxygenase to IC50 cyclooxygenase) | cyclooxygenase and/or lipoxygenase inhibitor ([2]; result in words) | chemical stability / oxidative decomposition ([1]; listed as Polymorph A) | stability on drying and storage ([1]; solvates release solvent at room temperature) | SMILES | chemical stability / oxidative decomposition [1] | analgesic action (analgesic action) |
| --- | --- | --- | --- | --- | --- | --- |
| – | – | – | – | CC1(C)Cc2c(-c3ccccc3)c(-c3ccc(Cl)cc3)c(CC(=O)O)n2C1 [amorphous ML 3000] | relatively severe oxidative decomposition | – |
| ~1 | potent | high chemical stability | stable on drying and storage | CC1(C)Cc2c(-c3ccccc3)c(-c3ccc(Cl)cc3)c(CC(=O)O)n2C1 [polymorph A, 6-(4-chlorophenyl)-2,2-dimethyl-7-phenyl-2,3-dihydro-1H-pyrrolizin-5-ylacetic Acid] | – | strong |
